System: HCT116 colon cancer cells
Assay: HCT116 xenograft model, tumor growth
Assay type: in vivo, Female athymic nude mice
Method: Female athymic nude mice were implanted subcutaneously with HCT116 colon cancer cells. […] Mice were treated with LBH589 at 5, 10 or 20 mg/kg intravenously (iv) 5 times a week for 3 weeks or 75 mg/kg of 5-Fluorouracil intravenously once a week for 3 weeks. Animals were calipered weekly. Compound activity was determined as the percent change in tumor volume of treated animals over control animals (% T/C). The percentage of regression was determined as the percent change in the final tumor volume at the end of the study over the starting tumor volume. […] The results are described in FIG. 1.

In the case of Cc1[nH]c2ccccc2c1CCNCc1ccc(/C=C/C(=O)NO)cc1 [LBH589, N-hydroxy-3-[4-[[[2-(2-methyl-1H-indol-3-yl)ethyl]-amino]methyl]phenyl]-2E-2-propenamide], the “% T/C (percent change in tumor volume of treated over control animals)” value (5 mg/kg intravenously 5 times a week for 3 weeks) is reported as 17%, the “% T/C (percent change in tumor volume of treated over control animals)” value (10 mg/kg intravenously 5 times a week for 3 weeks) is reported as 6% and the “tumor regression (percent change in final tumor volume over starting tumor volume)” value (20 mg/kg intravenously 5 times a week for 3 weeks) is reported as 8%.

From patent publication US20100137398A1, “USE OF HDAC INHIBITORS FOR THE TREATMENT OF GASTROINTESTINAL CANCERS” (NOVARTIS AG, priority 2007, published 2010)
